The values that follow come from PubChem BioAssay AID328 (DTP/NCI, 2004).

The test system of this assay is BDF1 mice, P388 leukemia ip, median survival T/C. Put plainly: NCI In Vivo Anticancer Drug Screen. Data for tumor model P388 Leukemia (intraperitoneal) in B6D2F1 (BDF1) mice. The following applies: endpoint: median survival time, higher = longer survival. An outline of the steps:
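Mice carrying the transplantable tumour receive compound or vehicle. Survival is followed in each arm, and the treated measure is divided by the vehicle measure.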

[1] abbreviates: dose: 100.0 mg/kg/injection, schedule: Q01DX001 (ip), vehicle: saline with Tween-80.
Setting [2] is: dose: 200.0 mg/kg/injection, schedule: Q01DX001 (ip), vehicle: saline with Tween-80.
Setting [3] is: dose: 400.0 mg/kg/injection, schedule: Q01DX001 (ip), vehicle: saline with Tween-80.
Where [4] appears, read: dose: 100.0 mg/kg/injection, schedule: Q04DX003 (ip), vehicle: Klucel (hydroxypropylcellulose) (HPC).
[5] abbreviates: dose: 200.0 mg/kg/injection, schedule: Q04DX003 (ip), vehicle: Klucel (hydroxypropylcellulose) (HPC).
[6] abbreviates: dose: 400.0 mg/kg/injection, schedule: Q04DX003 (ip), vehicle: Klucel (hydroxypropylcellulose) (HPC).
The mark [7] stands for this setting: dose: 1.56 mg/kg/injection, schedule: Q01DX009 (ip), vehicle: saline with Tween-80.
The mark [8] stands for this setting: dose: 6.25 mg/kg/injection, schedule: Q01DX009 (ip), vehicle: saline with Tween-80.
Where [9] appears, read: dose: 100.0 mg/kg/injection, schedule: Q01DX009 (ip), vehicle: saline with Tween-80.
Where [10] appears, read: dose: 100.0 mg/kg/injection, schedule: Q01DX009 (ip), vehicle: water.
The mark [11] stands for this setting: dose: 200.0 mg/kg/injection, schedule: Q01DX009 (ip), vehicle: water.
Setting [12] is: dose: 100.0 mg/kg/injection, schedule: Q04DX003 (ip), vehicle: saline with Tween-80.
Setting [13] is: dose: 200.0 mg/kg/injection, schedule: Q04DX003 (ip), vehicle: saline with Tween-80.
Setting [14] is: dose: 50.0 mg/kg/injection, schedule: Q01DX009 (ip), vehicle: saline with Tween-80.
The mark [15] stands for this setting: dose: 100.0 mg/kg/injection, schedule: Q01DX009 (ip), vehicle: Klucel (hydroxypropylcellulose) (HPC).
Where [16] appears, read: dose: 200.0 mg/kg/injection, schedule: Q01DX009 (ip), vehicle: Klucel (hydroxypropylcellulose) (HPC).
[17] abbreviates: dose: 400.0 mg/kg/injection, schedule: Q01DX009 (ip), vehicle: Klucel (hydroxypropylcellulose) (HPC).
[18] abbreviates: dose: 50.0 mg/kg/injection, schedule: Q01DX009 (ip), vehicle: Klucel (hydroxypropylcellulose) (HPC).

Values joined by “and” are separate entries in the source; they are usually repeats but may differ in a detail not shown here. Equal values may be shown once. Inconclusive results and toxic doses are left out.

As for `Cc1c2oc3c(C)c([N+](=O)[O-])cc(C(=O)NC4C(=O)NC(C(C)C)C(=O)N5CCCC5C(=O)N(C)CC(=O)N(C)C(C(C)C)C(=O)OC4C)c3nc-2c(C(=O)NC2C(=O)NC(C(C)C)C(=O)N3CCCC3C(=O)N(C)CC(=O)N(C)C(C(C)C)C(=O)OC2C)c(N)c1=O` (configuration not stated), the T/C reads like this: (dose: 150.0 micrograms/kg/injection, schedule: Q01DX009 (ip), vehicle: saline + alcohol) 153 % of control; (dose: 450.0 micrograms/kg/injection, schedule: Q04DX003 (ip), vehicle: saline + alcohol) 110 % of control; (dose: 600.0 micrograms/kg/injection, schedule: Q04DX003 (ip), vehicle: saline + alcohol) 108 % of control.

Turning to `Nc1ccccc1-c1ccc([N+](=O)[O-])cc1`, the T/C under setting [1] is 95 % of control, the T/C under setting [2] was 100 % of control and the T/C under setting [3] is 91 % of control.

As to `O=C(Cl)C1CC2c3ccccc3C1([N+](=O)[O-])c1ccccc12` (configuration not stated), the T/C under setting [4] was 104 % of control, the T/C under setting [5] was 100 % of control and the T/C under setting [6] was 113 % of control.

In the case of `CC(=O)[O][Hg][CH]1CCC2OC1CC[CH]2[Hg][O]C(C)=O` (configuration not stated), the T/C under setting [7] was 101 % of control; the T/C (dose: 3.13 mg/kg/injection, schedule: Q01DX009 (ip), vehicle: saline with Tween-80) was 113 % of control; the T/C under setting [8] is 111 % of control; the T/C (dose: 12.5 mg/kg/injection, schedule: Q01DX009 (ip), vehicle: saline with Tween-80) is 104 % of control.

For the compound `Clc1nc2nc(C3CC3)[nH]c2nc1Cl`, the T/C runs as follows: under setting [9], 104 % of control; (dose: 200.0 mg/kg/injection, schedule: Q01DX009 (ip), vehicle: saline with Tween-80) 100 % of control; (dose: 400.0 mg/kg/injection, schedule: Q01DX009 (ip), vehicle: saline with Tween-80) 104 % of control.

Take `N#Cc1cnn(CCO)c1N`: the T/C was 90 % of control under setting [10]; 100 % of control (dose: 100.0 mg/kg/injection, schedule: Q04DX003 (ip), vehicle: water); 113 % of control under setting [11]; 100 % of control (dose: 200.0 mg/kg/injection, schedule: Q04DX003 (ip), vehicle: water); 109 % of control (dose: 400.0 mg/kg/injection, schedule: Q01DX009 (ip), vehicle: water); 104 % of control (dose: 400.0 mg/kg/injection, schedule: Q04DX003 (ip), vehicle: water).

With `Cc1cc(=O)[nH]c(N/N=C/c2ccc(N(CCCl)CCCl)cc2)n1`, the T/C was 95 % of control under setting [12]; 86 % of control under setting [13]; 95 % of control (dose: 400.0 mg/kg/injection, schedule: Q04DX003 (ip), vehicle: saline with Tween-80).

Take `CCn1c2ccc([N+](=O)[O-])cc2c2c([N+](=O)[O-])cccc21`: the T/C under setting [1] is 110 % of control, the T/C under setting [2] was 100 % of control and the T/C under setting [3] was 94 % of control.

In the case of `CCCCCCCCCCCCOP(N)(=O)OCCCCCCCCCCCC`, the T/C reads like this: (dose: 10.0 mg/kg/injection, schedule: Q01DX009 (ip), vehicle: Klucel (hydroxypropylcellulose) (HPC)) 103 % of control; (dose: 20.0 mg/kg/injection, schedule: Q01DX009 (ip), vehicle: Klucel (hydroxypropylcellulose) (HPC)) 106 % of control; (dose: 40.0 mg/kg/injection, schedule: Q01DX009 (ip), vehicle: Klucel (hydroxypropylcellulose) (HPC)) 106 % of control; under setting [14], 109 % of control; under setting [9], 113 % of control; under setting [4], 105 % of control. Moreover, the T/C by setting is: under setting [12], 109 % of control; under setting [5], 97 % of control; under setting [13], 109 % of control; under setting [6], 121 % of control.

For `COC(=O)/C(C)=C/C1N=C1c1ccccc1` (configuration not stated), the T/C under setting [1] was 120 % of control.

As to `OC(Cc1ccccc1)(c1ccccc1)c1cccc2ccccc12` (configuration not stated), the T/C by setting is: under setting [15], 100 % of control; under setting [16], 100 % of control; under setting [17], 104 % of control.

Consider `O=C1C[C@H]2[C@H](CO)[C@@H](OC(=O)c3ccc(-c4ccccc4)cc3)C[C@H]2O1`, for which the T/C (dose: 12.5 mg/kg/injection, schedule: Q01DX009 (ip), vehicle: Klucel (hydroxypropylcellulose) (HPC)) was 105 % of control; the T/C (dose: 25.0 mg/kg/injection, schedule: Q01DX009 (ip), vehicle: Klucel (hydroxypropylcellulose) (HPC)) was 115 % of control; the T/C under setting [18] is 105 % of control; the T/C (dose: 75.0 mg/kg/injection, schedule: Q01DX009 (ip), vehicle: saline with Tween-80) is 120 % of control.

In the case of `C=CCSc1nc2ccccc2c(=O)n1-c1cc(OC)c(Cl)cc1OC`, the T/C was 88 % of control under setting [18] and 96 % of control under setting [15].

On to `Cc1ccc(S(=O)(=O)OCCC2CCCCC2COS(=O)(=O)c2ccc(C)cc2)cc1` (configuration not stated), for which the T/C is 105 % of control under setting [15], 100 % of control under setting [16] and 110 % of control under setting [17].

`CC(C1CCC/C(=N\NC(N)=O)C1)[N+](=O)[O-]` (configuration not stated): the T/C was 103 % of control (dose: 0.19 mg/kg/injection, schedule: Q01DX009 (ip), vehicle: saline with Tween-80); 101 % of control and 102 % of control and 119 % of control (dose: 0.39 mg/kg/injection, schedule: Q01DX009 (ip), vehicle: saline with Tween-80); 95 % of control and 99 % of control (dose: 0.78 mg/kg/injection, schedule: Q01DX009 (ip), vehicle: saline with Tween-80); 96 % of control and 100 % of control and 109 % of control under setting [7]; 93 % of control and 108 % of control and 113 % of control (dose: 3.12 mg/kg/injection, schedule: Q01DX009 (ip), vehicle: saline with Tween-80); 92 % of control and 94 % of control under setting [8].

For the compound `O=C(O)CC(NC(=O)CP(=O)(O)O)C(=O)O` (configuration not stated), the T/C runs as follows: (dose: 50.0 mg/kg/injection, schedule: Q01DX009 (ip), vehicle: saline) 117 % of control; (dose: 100.0 mg/kg/injection, schedule: Q01DX009 (ip), vehicle: saline) 118 % of control; under setting [10], 100 % of control; (dose: 180.0 mg/kg/injection, schedule: Q04DX003 (ip), vehicle: saline) 118 % of control; (dose: 200.0 mg/kg/injection, schedule: Q01DX009 (ip), vehicle: saline) 157 % of control; under setting [11], 109 % of control. Further, the T/C is 109 % of control (dose: 300.0 mg/kg/injection, schedule: Q01DX009 (ip), vehicle: saline); 106 % of control (dose: 300.0 mg/kg/injection, schedule: Q01DX009 (ip), vehicle: water); 109 % of control (dose: 300.0 mg/kg/injection, schedule: Q04DX003 (ip), vehicle: saline); 96 % of control (dose: 400.0 mg/kg/injection, schedule: Q01DX009 (ip), vehicle: saline); 122 % of control (dose: 500.0 mg/kg/injection, schedule: Q04DX003 (ip), vehicle: saline); 118 % of control (dose: 600.0 mg/kg/injection, schedule: Q04DX003 (ip), vehicle: saline). Besides, the T/C reads like this: (dose: 750.0 mg/kg/injection, schedule: Q04DX003 (ip), vehicle: saline) 163 % of control; (dose: 833.0 mg/kg/injection, schedule: Q04DX003 (ip), vehicle: saline) 100 % of control; (dose: 1000.0 mg/kg/injection, schedule: Q04DX003 (ip), vehicle: saline) 85 % of control; (dose: 1500.0 mg/kg/injection, schedule: Q04DX003 (ip), vehicle: saline) 64 % of control.

For `NC(CSC(c1ccccc1)(c1ccccc1)c1ccc(Cl)cc1)C(=O)O` (configuration not stated), the T/C (dose: 33.0 mg/kg/injection, schedule: Q04DX003 (ip), vehicle: saline with Tween-80) is 190 % of control; the T/C under setting [14] was 272 % of control; the T/C (dose: 50.0 mg/kg/injection, schedule: Q04DX003 (ip), vehicle: saline with Tween-80) is 190 % of control; the T/C (dose: 75.0 mg/kg/injection, schedule: Q04DX003 (ip), vehicle: saline with Tween-80) was 272 % of control.
